Each compound was assayed against HPK1 (Homo sapiens (Human), UniProt Q92918) (assay: HPK1 Lantha binding assay ("Lanth")). Conditions: binding assays; Morrison Ki fit.
Method in brief: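 Ki values are from Morrison-equation fitting of 665/615 nm TR-FRET signals, taking enzyme level, tracer level and tracer Kd into account. The assay mix held HPK1 (2 nM), Eu-anti-GST antibody (2 nM) and Tracer222 (15 nM). Incubations were two 1 h steps at 23 °C, on 5-fold serial compound dilutions.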

HPK1, sequence (Q92918 1-346 limits assumed): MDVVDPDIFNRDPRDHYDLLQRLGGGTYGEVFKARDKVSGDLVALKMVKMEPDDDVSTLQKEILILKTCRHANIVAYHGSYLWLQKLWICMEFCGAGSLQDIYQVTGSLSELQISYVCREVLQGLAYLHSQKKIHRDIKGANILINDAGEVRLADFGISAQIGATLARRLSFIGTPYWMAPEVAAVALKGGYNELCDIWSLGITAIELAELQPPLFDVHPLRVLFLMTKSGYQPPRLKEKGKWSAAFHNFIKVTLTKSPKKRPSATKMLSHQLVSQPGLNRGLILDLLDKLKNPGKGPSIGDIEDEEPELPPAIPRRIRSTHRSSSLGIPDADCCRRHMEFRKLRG

| Ki [nM] | Structure (SMILES) |
| --- | --- |
| 251 | CN(C)C(=O)c1c(N)ccc(-c2cnc3c(c2Cl)C2(CCC(N(C)CC(N)=O)C2)CN3)c1F (stereo not drawn) [Compound 75, 6-Amino-3-(3-((2-amino-2-oxoethyl)(methyl)amino)-4′-chloro-1′,2′-dihydrospiro[cyclopentane-1,3′-pyrrolo[2,3-b]pyridin]-5′-yl)-2-fluoro-N,N-dimethylbenzamide] |
| 84.7 | O=C1NCCN1c1cccc(-c2cnc3c(c2Cl)C2(CC2)CN3)c1 [Compound 55, 1-(3-(4′-Chloro-1′,2′-dihydrospiro[cyclopropane-1,3′-pyrrolo[2,3-b]pyridin]-5′-yl)phenyl)imidazolidin-2-one] |
| 37.3 | N#Cc1ccc2[nH]nc(-c3cnc4c(c3)C3(CC3)CN4)c2c1 [Compound 322, 3-(1′,2′-Dihydrospiro[cyclopropane-1,3′-pyrrolo[2,3-b]pyridin]-5′-yl)-1H-indazole-5-carbonitrile] |
| 6.58 | CN(C)C(=O)c1c(N)ccc(-c2cnc3c(c2Cl)[C@]2(CC[C@H](n4cc(Cl)cn4)C2)CN3)c1F (relative stereo) [Compound 171a, 6-Amino-3-((1R,3S)-4′-chloro-3-(4-chloro-1H-pyrazol-1-yl)-1′,2′-dihydrospiro[cyclopentane-1,3′-pyrrolo[2,3-b]pyridin]-5′-yl)-2-fluoro-N,N-dimethylbenzamide] |
| 340 | O=C(NCCO)c1ccc(-c2cnc3c(c2Cl)C2(CC=CC2)CN3)cc1 [Compound 214, 4-(4′-Chloro-1′,2′-dihydrospiro[cyclopentane-1,3′-pyrrolo[2,3-6]pyridin]-3-en-5′-yl)-N-(2-hydroxyethyl)benzamide] |
| 125 | c1ccc2c(-c3cnc4c(c3)C3(CC3)CN4)c[nH]c2c1 [Compound 314, 5′-(1H-Indol-3-yl)-1′,2′-dihydrospiro[cyclopropane-1,3′-pyrrolo[2,3-b]pyridine]] |
| 109 | Cc1nc(N)nn1[C@H]1CC[C@@]2(CNc3ncc(-c4ccc(N)c(C(=O)N(C)C)c4F)c(Cl)c32)C1 (relative stereo) [Compound 157a, 6-Amino-3-((1R,3S)-3-(3-amino-5-methyl-1H-1,2,4-triazol-1-yl)-4′-chloro-1′,2′-dihydrospiro[cyclopentane-1,3′-pyrrolo[2,3-b]pyridin]-5′-yl)-2-fluoro-N,N-dimethylbenzamide] |
| 283 | Clc1c(-c2ccc(Oc3ncccn3)cc2)cnc2c1C1(CC=CC1)CN2 [Compound 237, 4′-Chloro-5′-(4-(pyrimidin-2-yloxy)phenyl)-1′,2′-dihydrospiro[cyclopentane-1,3′-pyrrolo[2,3-b]pyridin]-3-ene] |
| 81.5 | OCc1cccnc1-c1cccc(-c2cnc3c(c2)C2(CC2)CN3)c1 [Compound 43, (2-(3-(1′,2′-Dihydrospiro[cyclopropane-1,3′-pyrrolo[2,3-b]pyridin]-5′-yl)phenyl)pyridin-3-yl)methanol] |
| 22.7 | CN(C)C(=O)c1c(N)ccc(-c2cnc3c(c2)C2(CC2)CN3)c1F [Compound 6, 6-Amino-3-(1′,2′-dihydrospiro[cyclopropane-1,3′-pyrrolo[2,3-b]pyridin]-5′-yl)-2-fluoro-N,N-dimethylbenzamide] |
| 24.9 | CN(C)CCN(C)C(=O)c1c(N)ccc(-c2cnc3c(c2Cl)[C@]2(CC[C@](C)(C#N)C2)CN3)c1F (single isomer, unassigned) [Compound 271a] |
| 230 | CN(C)S(=O)(=O)Nc1cccc(-c2cnc3c(c2Cl)C2(CC=CC2)CN3)c1 [Compound 218, N-(3-(4′-Chloro-1′,2′-dihydrospiro[cyclopentane-1,3′-pyrrolo[2,3-b]pyridin]-3-en-5′-yl)phenyl)-N′,N′-dimethylsulfamide] |
| 75.8 | CNS(=O)(=O)c1cccc(-c2cnc3c(c2Cl)C2(CC=CC2)CN3)c1 [Compound 185, 3-(4′-Chloro-1′,2′-dihydrospiro[cyclopentane-1,3′-pyrrolo[2,3-b]pyridin]-3-en-5′-yl)-N-methylbenzenesulfonamide] |
| 21.9 | C[C@]1(C(N)=O)CC[C@@]2(CNc3ncc(-c4cccc(N5CCOCC5=O)c4F)c(Cl)c32)C1 (single isomer, unassigned) [Compound 202b] |
| 165 | CN(C)C(=O)c1c(N)ccc(-c2cnc3c(c2)[C@]2(CN3)C[C@@](C)(O)C2)c1F [Compound 78b, 6-Amino-2-fluoro-3-((1s,3s)-3-hydroxy-3-methyl-1′,2′-dihydrospiro[cyclobutane-1,3′-pyrrolo[2,3-b]pyridin]-5′-yl)-N,N-dimethylbenzamide] |
| 306 | CN(C)C(=O)Cn1cc(-c2cnc3c(c2Cl)C2(CC=CC2)CN3)cn1 [Compound 319, 2-(4-(4′-Chloro-1′,2′-dihydrospiro[cyclopentane-1,3′-pyrrolo[2,3-b]pyridin]-3-en-5′-yl)-1H-pyrazol-1-yl)-N,N-dimethylacetamide] |
| 32.8 | Nc1ccc(-c2cnc3c(c2)C2(CC2)CN3)c(F)c1C(=O)N1CCCC1CO (stereo not drawn) [Compound 17, (6-amino-3-(1′,2′-dihydrospiro[cyclopropane-1,3′-pyrrolo[2,3-b]pyridin]-5′-yl)-2-fluorophenyl)(2-(hydroxymethyl)pyrrolidin-1-yl)methanone] |
| 88.7 | CN(C)C(=O)c1c(N)ccc(-c2cnc3c(c2)C2(CN3)CC2(C)C)c1F (stereo not drawn) [Compound 24, 6-Amino-3-(2,2-dimethyl-1′,2′-dihydrospiro[cyclopropane-1,3′-pyrrolo[2,3-b]pyridin]-5′-yl)-2-fluoro-N,N-dimethylbenzamide] |
| 73.6 | CN(C)C(=O)c1c(N)ccc(-c2cnc3c(c2)C2(CN3)CC(=CC#N)C2)c1F (stereo not drawn) [Compound 94a, (s,E)-6-Amino-3-(3-(cyanomethylene)-1′,2′-dihydrospiro[cyclobutane-1,3′-pyrrolo[2,3-b]pyridin]-5′-yl)-2-fluoro-N,N-dimethylbenzamide] |
| 38.9 | O=C1COCCN1c1cccc(-c2cnc3c(c2)C2(CC2)CN3)c1F [Compound 9, 4-(3-(1′,2′-Dihydrospiro[cyclopropane-1,3′-pyrrolo[2,3-b]pyridin]-5′-yl)-2-fluorophenyl)morpholin-3-one] |
| 79.7 | Fc1ccc2[nH]cc(-c3cnc4c(c3)C3(CC3)CN4)c2c1 [Compound 338, 5′-(5-Fluoro-1H-indol-3-yl)-1′,2′-dihydrospiro[cyclopropane-1,3′-pyrrolo[2,3-b]pyridine]] |
| 0.89 | Cn1cc([C@H]2CCCCN2C(=O)c2c(N)ccc(-c3cnc4c(c3Cl)C3(CC=CC3)CN4)c2F)cn1 (single isomer, unassigned) [Compound 239a] |
| 120 | CN(C)C(=O)c1c(N)ccc(-c2cnc3c(c2)[C@]2(CN3)C[C@@H](CC#N)C2)c1F [Compound 95a, 6-Amino-3-((1r,3r)-3-(cyanomethyl)-1′,2′-dihydrospiro[cyclobutane-1,3′-pyrrolo[2,3-b]pyridin]-5′-yl)-2-fluoro-N,N-dimethylbenzamide] |
| 4.89 | CN(C)C(=O)c1c(N)ccc(-c2cnc3c(c2Cl)[C@]2(CC[C@@H](CO)CC2)CN3)c1F [Compound 248b, 6-Amino-3-((1r,4r)-4′-chloro-4-(hydroxymethyl)-1′,2′-dihydrospiro[cyclohexane-1,3′-pyrrolo[2,3-b]pyridin]-5′-yl)-2-fluoro-N,N-dimethylbenzamide] |
